± gives the standard deviation of the averaged measurements.
Key:
UT-SCC-40 [1] = assay: relative IC50 (midpoint of the fitted curve; maximal inhibition may be below 50%); higher = less potent; conditions: treatment time: 3 days
How it was run: (§1)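 HPV-negative HNSCC cell lines were seeded at 500 cells/well in 384-well plates on plastic, on Matrigel- or Myogel-coated wells (500 µg/mL), or embedded in Matrigel or Myogel plus rat collagen I. Compounds were given at five 10-fold concentrations for 3 days, and viability was read by CellTiter-Glo 2.0 luminescence. Signals were normalised to vehicle (0.1% DMSO) and cell-killing control wells. Percent-inhibition dose–response curves were fitted in the FIMM pipeline to derive IC50, maximal inhibition and drug sensitivity score.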

UT-SCC-81 [2] = assay: as above; conditions: treatment time: 3 days
How it was run: as §1

UT-SCC-28 [3] = assay: as above; conditions: culture condition: embedded in Myogel + collagen I; treatment time: 3 days
How it was run: as §1

UT-SCC-24B [4] = assay: as above; conditions: culture condition: on top of Myogel; treatment time: 3 days
How it was run: as §1

UT-SCC-24A = assay: drug sensitivity score (DSS); higher = more sensitive; conditions: treatment time: 3 days
Description: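 HNSCC cell lines (500 cells/well, 384-well) were cultured on plastic, on top of (2D) or embedded (3D) in Matrigel or human leiomyoma matrix Myogel (500 ug/mL; Myogel 3D mixed with rat collagen I). Cells were treated for 3 days with 5 ten-fold concentrations of each drug, and viability was read by CellTiter-Glo. Suffixes _1/_2/_3 on drug names are replicates.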

UT-SCC-42B = assay: maximal % inhibition of viability relative to DMSO; higher = stronger effect; conditions: treatment time: 3 days
Description: (§2)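 HNSCC cell lines (500 cells/well, 384-well) were cultured on plastic, on top of (2D) or embedded (3D) in Matrigel or human leiomyoma matrix Myogel (500 ug/mL; Myogel 3D mixed with rat collagen I). Cells were treated for 3 days with 5 ten-fold concentrations of each drug, and viability was read by CellTiter-Glo. Viability was normalised to DMSO and benzethonium chloride controls and fitted with the FIMM DSRT pipeline to give IC50 (nM), maximal % inhibition and DSS. Suffixes _1/_2/_3 are replicates. Only inhibition-mode (IC50) fits are kept.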

UT-SCC-40 [5] = assay: as above; conditions: treatment time: 3 days
Description: as §2

UT-SCC-42A = assay: as above; conditions: treatment time: 3 days
Description: as §2

UT-SCC-81 [6] = assay: as above; conditions: treatment time: 3 days
Description: as §2

UT-SCC-28 [7] = assay: as above; conditions: treatment time: 3 days
Description: as §2

UT-SCC-44 = assay: as above; conditions: treatment time: 3 days
Description: as §2

UT-SCC-24B [8] = assay: as above; conditions: treatment time: 3 days
Description: as §2

UT-SCC-8 = assay: as above; conditions: treatment time: 3 days
Description: as §2

UT-SCC-14 = assay: as above; conditions: treatment time: 3 days
Description: as §2

UT-SCC-106A = assay: as above; conditions: treatment time: 3 days
Description: as §2

UT-SCC-73 = assay: as above; conditions: treatment time: 3 days
Description: as §2

[9] = culture condition: embedded in Matrigel
[10] = culture condition: plastic 2D (no matrix)
[11] = culture condition: embedded in Myogel + collagen I
[12] = culture condition: on top of Matrigel
[13] = culture condition: on top of Myogel

CO[C@H]1C[C@@H]2CC[C@@H](C)[C@@](O)(O2)C(=O)C(=O)N2CCCC[C@H]2C(=O)O[C@H]([C@H](C)C[C@@H]2CC[C@@H](OCCO)[C@H](OC)C2)CC(=O)[C@H](C)/C=C(\C)[C@@H](O)[C@@H](OC)C(=O)[C@H](C)C[C@H](C)/C=C/C=C/C=C/1C [Everolimus]
relative IC50 (UT-SCC-40 [1]; [9]): 4.61 nM
relative IC50 (UT-SCC-40 [1]; [10]): 9.09 nM
relative IC50 (UT-SCC-81 [2]; [11]): 2.53 nM
relative IC50 (UT-SCC-81 [2]; [12]): 6.53 nM
relative IC50 (UT-SCC-81 [2]; [13]): 6.12 nM
relative IC50 (UT-SCC-81 [2]; [10]): 2.97 nM
relative IC50 (UT-SCC-28 [3]): 6.89 nM
relative IC50 (UT-SCC-24B [4]): 5.03 nM
drug sensitivity score (UT-SCC-24A; [9]): 3.6 ± 6.2 DSS
drug sensitivity score (UT-SCC-24A; [11]): 6.43 ± 3 DSS
drug sensitivity score (UT-SCC-24A; [12]): 2.93 ± 2.3 DSS
drug sensitivity score (UT-SCC-24A; [13]): 2.57 ± 0.21 DSS
drug sensitivity score (UT-SCC-24A; [10]): 2.57 ± 0.25 DSS
maximal % inhibition of viability (UT-SCC-42B; [9]): 14.8 ± 5.8%
maximal % inhibition of viability (UT-SCC-42B; [12]): 14.4 ± 2.9%
maximal % inhibition of viability (UT-SCC-42B; [13]): 10.9 ± 2.4%
maximal % inhibition of viability (UT-SCC-42B; [10]): 12.6 ± 3.1%
maximal % inhibition of viability (UT-SCC-40 [5]; [9]): 27.2 ± 25%
maximal % inhibition of viability (UT-SCC-40 [5]; [11]): 33.3 ± 4.4%
maximal % inhibition of viability (UT-SCC-40 [5]; [12]): 23.3 ± 5.5%
maximal % inhibition of viability (UT-SCC-40 [5]; [13]): 20.2 ± 10%
maximal % inhibition of viability (UT-SCC-40 [5]; [10]): 21.6 ± 8.3%
maximal % inhibition of viability (UT-SCC-42A; [9]): 17.3 ± 9.2%
maximal % inhibition of viability (UT-SCC-42A; [11]): 32.2 ± 2.5%
maximal % inhibition of viability (UT-SCC-42A; [12]): 34.3 ± 6%
maximal % inhibition of viability (UT-SCC-42A; [13]): 33.1 ± 5%
maximal % inhibition of viability (UT-SCC-42A; [10]): 29.9 ± 2.9%
maximal % inhibition of viability (UT-SCC-81 [6]; [9]): 43.5 ± 14%
maximal % inhibition of viability (UT-SCC-81 [6]; [11]): 54.1 ± 1.6%
maximal % inhibition of viability (UT-SCC-81 [6]; [12]): 39.4 ± 3.5%
maximal % inhibition of viability (UT-SCC-81 [6]; [13]): 53.2 ± 3.5%
maximal % inhibition of viability (UT-SCC-81 [6]; [10]): 46.8 ± 3.7%
maximal % inhibition of viability (UT-SCC-28 [7]; [9]): 28.6 ± 11%
maximal % inhibition of viability (UT-SCC-28 [7]; [11]): 27.7 ± 7.6%
maximal % inhibition of viability (UT-SCC-28 [7]; [12]): 28.2 ± 6.3%
maximal % inhibition of viability (UT-SCC-28 [7]; [10]): 28.1 ± 8.8%
maximal % inhibition of viability (UT-SCC-44; [9]): 30.9 ± 17%
maximal % inhibition of viability (UT-SCC-44; [11]): 45 ± 2.1%
maximal % inhibition of viability (UT-SCC-44; [12]): 34 ± 2.7%
maximal % inhibition of viability (UT-SCC-44; [13]): 37.7 ± 4.2%
maximal % inhibition of viability (UT-SCC-44; [10]): 33.1 ± 5.5%
maximal % inhibition of viability (UT-SCC-24B [8]; [9]): 28.7 ± 6.1%
maximal % inhibition of viability (UT-SCC-24B [8]; [11]): 44.8 ± 5.3%
maximal % inhibition of viability (UT-SCC-24B [8]; [12]): 18.1 ± 0.91%
maximal % inhibition of viability (UT-SCC-24B [8]; [13]): 30.1 ± 8.6%
maximal % inhibition of viability (UT-SCC-24B [8]; [10]): 24.9 ± 3%
maximal % inhibition of viability (UT-SCC-8; [9]): 39.1 ± 2.8%
maximal % inhibition of viability (UT-SCC-8; [11]): 36.4 ± 12%
maximal % inhibition of viability (UT-SCC-8; [12]): 36.6 ± 9.4%
maximal % inhibition of viability (UT-SCC-8; [13]): 46.9 ± 14%
maximal % inhibition of viability (UT-SCC-8; [10]): 44.7 ± 11%
maximal % inhibition of viability (UT-SCC-14; [9]): 58 ± 10%
maximal % inhibition of viability (UT-SCC-14; [11]): 50.9 ± 5.5%
maximal % inhibition of viability (UT-SCC-14; [12]): 47.6 ± 5.8%
maximal % inhibition of viability (UT-SCC-14; [13]): 42.6 ± 0.36%
maximal % inhibition of viability (UT-SCC-14; [10]): 46.4 ± 8.9%
maximal % inhibition of viability (UT-SCC-106A; [9]): 30.8 ± 12%
maximal % inhibition of viability (UT-SCC-106A; [11]): 20.6 ± 4.6%
maximal % inhibition of viability (UT-SCC-106A; [12]): 40.7 ± 13%
maximal % inhibition of viability (UT-SCC-106A; [13]): 21.3 ± 5%
maximal % inhibition of viability (UT-SCC-106A; [10]): 50.1 ± 11%
maximal % inhibition of viability (UT-SCC-73; [9]): 22.8 ± 3.8%
maximal % inhibition of viability (UT-SCC-73; [11]): 46.1 ± 20%
maximal % inhibition of viability (UT-SCC-73; [12]): 26 ± 4.4%
maximal % inhibition of viability (UT-SCC-73; [13]): 34.8 ± 1.5%
maximal % inhibition of viability (UT-SCC-73; [10]): 28 ± 2.5%

Source: the supplement of paper PMC7017272
